Measured values as given in patent US20020137929A1, “1 - (3-heterocyclylphenyl) isothiourea, -isourea, -guanidine and -amidine herbicidal agents” (Intellectual Property Department, BASF Aktiengesellschaft, priority 1998, published 2002).

Assays:
[1] = test system: CASOB (Sicklepod); experiment: Postemergence herbicidal evaluation; type: in vivo, Cassia obtusifolia; settings: postemergence
How it was run: (§1)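 Compound is applied as a foliar spray to seedlings about two weeks old, formulated in equal parts acetone and water with 0.5% TWEEN 20 and delivered at 40 psi to give about 0.0156–0.500 kg per hectare. Injury is rated visually 0–9 after four to five weeks.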

[2] = test system: CHEAL (Lambsquarters, Common); experiment: Postemergence herbicidal evaluation; type: in vivo, Chenopodium album; settings: postemergence
How it was run: as §1

[3] = test system: GALAP (Galium); experiment: Postemergence herbicidal evaluation; type: in vivo, Galium aparine; settings: postemergence
How it was run: as §1

[4] = test system: ORYSAT (Rice, Tebonnet); experiment: Postemergence herbicidal evaluation; type: in vivo, Oryza sativa, (L.) Tebonnet; settings: postemergence
How it was run: as §1

[5] = test system: ZEAMX (Corn, Field); experiment: Postemergence herbicidal evaluation; type: in vivo, Zea mays; settings: postemergence
How it was run: as §1

[6] = test system: AMBEL (Ragweed, Common); experiment: Preemergence herbicidal evaluation; type: in vivo, Ambrosia artemisifolia; settings: rated 4-5 weeks after treatment
How it was run: (§2)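 In this greenhouse assay, monocot and dicot seeds are planted in soil and treated prior to emergence with an aqueous acetone spray (about 0.0156-0.500 kg/ha). Plants are assessed visually against control on a 0-9 scale after 4-5 weeks.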

[7] = test system: SETVI (Foxtail, Green); experiment: Preemergence herbicidal evaluation; type: in vivo, Setaria viridis; settings: rated 4-5 weeks after treatment
How it was run: as §2

[8] = test system: GLXMAW (Soybean, Williams); experiment: Preemergence herbicidal evaluation; type: in vivo, Glycine max, (L.) Merr. cv Williams; settings: rated 4-5 weeks after treatment
How it was run: as §2

[9] = test system: ORYSAT (Rice, Tebonnet); experiment: Preemergence herbicidal evaluation; type: in vivo, Oryza sativa, (L.) Tebonnet; settings: rated 4-5 weeks after treatment
How it was run: as §2

[10] = test system: CYPSE (Flatsedge); experiment: Preemergence weed control under flooded paddy conditions; type: in vivo, Cyperus serotinus; settings: rated 3-4 weeks after treatment
How it was run: (§3)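 Flooded-pot preemergence screen with silt loam and seeds in the upper 0.5 cm. Dose about 0.0313 to 0.500 kg/ha, delivered into flood water; visual 0-9 score after 3 to 4 weeks.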

[11] = test system: MOOVA (Monochoria); experiment: as above; type: in vivo, Monochoria vaginalis; settings: rated 3-4 weeks after treatment
How it was run: as §3

[12] = test system: CYPIR (Rice Flatsedge); experiment: Postemergence weed control under flooded paddy conditions; type: in vivo, Cyperus iria; settings: postemergence weeds, 3-4 weeks after treatment
How it was run: (§4)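 With weeds 3 to 5 cm tall and rice at the 1.5 to 2.5 leaf stage, containers were flooded and water held 1.5 to 3 cm above soil. Compounds in 50/50 v/v aqueous/acetone went into the flood water at about 0.0313 to 0.500 kg/ha a.i. Effects were visually rated 0–9 against controls after three to four weeks in the greenhouse.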

[13] = test system: CYPSE (Flatsedge); experiment: as above; type: in vivo, Cyperus serotinus; settings: postemergence weeds, 3-4 weeks after treatment
How it was run: as §4

[14] = test system: SAGPY (Arrowhead (Pygmaea)); experiment: as above; type: in vivo, Sagittaria pygmaea; settings: postemergence weeds, 3-4 weeks after treatment
How it was run: as §4

In the case of `CCOC(=O)CN1C(=O)C2(CC2)SC1=Nc1cc(-n2c(=O)cc(C(F)(F)F)n(C)c2=O)c(F)cc1Cl` [Compound 15, Ethyl 5-{{2-chloro-5-[3,6-dihydro-3-methyl-2,6-dioxo-4-(trifluoromethyl)-1(2H)-pyrimidinyl]-4-fluorophenyl}imino}-7-oxo-4-thia-6-azaspiro[2.4]-heptane-6-acetate], the CASOB herbicidal rating ([1]; rate 0.0156 kg/ha) is reported as 0.0, the CASOB herbicidal rating ([1]; rate 0.0313 kg/ha) is reported as 0.0 and the CASOB herbicidal rating ([1]; rate 0.0625 kg/ha) is reported as 0.0. It also gave a CASOB herbicidal rating ([1]; rate 0.1250 kg/ha) of 4.0, a CHEAL herbicidal rating ([2]; rate 0.0156 kg/ha) of 3.0 and a CHEAL herbicidal rating ([2]; rate 0.0313 kg/ha) of 3.0. For the same molecule, the CHEAL herbicidal rating ([2]; rate 0.0625 kg/ha) was 9.0, the CHEAL herbicidal rating ([2]; rate 0.1250 kg/ha) was 9.0 and the GALAP herbicidal rating ([3]; rate 0.0156 kg/ha) was 0.0. The GALAP herbicidal rating ([3]; rate 0.0313 kg/ha) was 0.0, the GALAP herbicidal rating ([3]; rate 0.0625 kg/ha) was 3.0 and the GALAP herbicidal rating ([3]; rate 0.1250 kg/ha) was 6.0. For the same molecule, the ORYSAT herbicidal rating ([4]; rate 0.0156 kg/ha) was 4.5, the ORYSAT herbicidal rating ([4]; rate 0.0313 kg/ha) was 5.0 and the ORYSAT herbicidal rating ([4]; rate 0.0625 kg/ha) was 6.5. It also gave an ORYSAT herbicidal rating ([4]; rate 0.1250 kg/ha) of 6.5, a ZEAMX herbicidal rating ([5]; rate 0.0156 kg/ha) of 5.0 and a ZEAMX herbicidal rating ([5]; rate 0.0313 kg/ha) of 6.0. The ZEAMX herbicidal rating ([5]; rate 0.0625 kg/ha) was 7.0, the ZEAMX herbicidal rating ([5]; rate 0.1250 kg/ha) was 7.5 and the “AMBEL preemergence herbicidal rating” value ([6]; rate 0.0156 kg/ha) was 0.5. For the same molecule, the “AMBEL preemergence herbicidal rating” value ([6]; rate 0.0313 kg/ha) was 1.0, the “AMBEL preemergence herbicidal rating” value ([6]; rate 0.0625 kg/ha) was 1.5 and the “AMBEL preemergence herbicidal rating” value ([6]; rate 0.1250 kg/ha) was 3.0. The “AMBEL preemergence herbicidal rating” value ([6]; rate 0.2500 kg/ha) was 9.0, the “SETVI preemergence herbicidal rating” value ([7]; rate 0.0156 kg/ha) was 0.5 and the “SETVI preemergence herbicidal rating” value ([7]; rate 0.0313 kg/ha) was 0.5. The “SETVI preemergence herbicidal rating” value ([7]; rate 0.0625 kg/ha) was 0.5, the “SETVI preemergence herbicidal rating” value ([7]; rate 0.1250 kg/ha) was 4.0 and the “SETVI preemergence herbicidal rating” value ([7]; rate 0.2500 kg/ha) was 9.0. The “GLXMAW preemergence herbicidal rating” value ([8]; rate 0.0156 kg/ha) was 0.5, the “GLXMAW preemergence herbicidal rating” value ([8]; rate 0.0313 kg/ha) was 0.5 and the “GLXMAW preemergence herbicidal rating” value ([8]; rate 0.0625 kg/ha) was 1.0. For the same molecule, the “GLXMAW preemergence herbicidal rating” value ([8]; rate 0.1250 kg/ha) was 2.5, the “GLXMAW preemergence herbicidal rating” value ([8]; rate 0.2500 kg/ha) was 5.5 and the “ORYSAT preemergence herbicidal rating” value ([9]; rate 0.0156 kg/ha) was 0.0. The “ORYSAT preemergence herbicidal rating” value ([9]; rate 0.0313 kg/ha) was 0.0, the “ORYSAT preemergence herbicidal rating” value ([9]; rate 0.0625 kg/ha) was 0.5 and the “ORYSAT preemergence herbicidal rating” value ([9]; rate 0.1250 kg/ha) was 1.0. For the same molecule, the “ORYSAT preemergence herbicidal rating” value ([9]; rate 0.2500 kg/ha) was 1.5, the “Herbicidal rating CYPSE” value ([10]; 0.0313 kg/ha) was 0.0 and the “Herbicidal rating CYPSE” value ([10]; 0.0625 kg/ha) was 0.0. The “Herbicidal rating CYPSE” value ([10]; 0.1250 kg/ha) was 0.0, the “Herbicidal rating CYPSE” value ([10]; 0.2500 kg/ha) was 0.0 and the “Herbicidal rating MOOVA” value ([11]; 0.0313 kg/ha) was 9.0. For the same molecule, the “Herbicidal rating MOOVA” value ([11]; 0.0625 kg/ha) was 9.0, the “Herbicidal rating MOOVA” value ([11]; 0.1250 kg/ha) was 9.0 and the “Herbicidal rating MOOVA” value ([11]; 0.2500 kg/ha) was 9.0. For the same molecule, the “Herbicidal rating CYPIR” value ([12]; rate 0.0313 kg/ha) was 2.0, the “Herbicidal rating CYPIR” value ([12]; rate 0.0625 kg/ha) was 2.0 and the “Herbicidal rating CYPIR” value ([12]; rate 0.1250 kg/ha) was 6.0. For the same molecule, the “Herbicidal rating CYPIR” value ([12]; rate 0.2500 kg/ha) was 7.0, the “Herbicidal rating CYPSE” value ([13]; rate 0.0313 kg/ha) was 0.0 and the “Herbicidal rating CYPSE” value ([13]; rate 0.0625 kg/ha) was 0.0. For the same molecule, the “Herbicidal rating CYPSE” value ([13]; rate 0.1250 kg/ha) was 0.0, the “Herbicidal rating CYPSE” value ([13]; rate 0.2500 kg/ha) was 0.0 and the “Herbicidal rating SAGPY” value ([14]; rate 0.0313 kg/ha) was 0.0. The “Herbicidal rating SAGPY” value ([14]; rate 0.0625 kg/ha) was 0.0, the “Herbicidal rating SAGPY” value ([14]; rate 0.1250 kg/ha) was 0.0 and the “Herbicidal rating SAGPY” value ([14]; rate 0.2500 kg/ha) was 0.0.
